These results are taken from ChEMBL document CHEMBL3988442, “University of Dundee, Small-Polar-MMV Screening Library” (2021).

In this experiment the test system is Plasmodium falciparum. The experiment can be described thus: Calibr Malaria Delayed Death Assay SOP. It is filed as functional, organism-based. As to conditions: for IC50: Plasmodium falciparum.

SMILES strings stand for the structures. Several values for one entry are separate records, joined by “and”; a condition that tells them apart may be missing. Equal entries are not always repeated.

The pIC50 is the negative decadic logarithm of the IC50, by convention in mol/L. By IC50 is commonly meant the point on the concentration scale where inhibition reaches its midpoint.

Take `CN(C)CCn1nc(C2CCN(Cc3ccccc3)C2)c2cccnc21` (configuration not stated): the pIC50 is 5.827 and inhibition was half-maximal at 2240 nM (IC50).
Take `Cc1cccc(C)c1Nc1noc2c1CN(C(=O)c1ccn(C)n1)CC2`: the negative logarithm of the IC50 (pIC50) stood at 6.694 and the midpoint of inhibition, the IC50, lay at 206 nM.
On the same counts, the results for `COc1ccc(C(=O)NCCCOC(C)c2ccccc2)c(OC)c1` (configuration not stated) are 6.022 and 763 nM.
In turn, `OCCN1CCC(CNCc2ccc(Br)cc2)CC1` showed a pIC50 of 6.334 and a 50% inhibitory concentration (IC50) of 364 nM.
On the same counts, the results for `O=C(c1ccccc1)C1CCN(Cc2cc3c(cc2O)CCC3)CC1` are 6.259 and 613 nM.
For `CC(NCC1CCN(CCO)CC1)c1ccc(F)c(Cl)c1` (configuration not stated) the same measures were 6.184 and 758 nM.
With `CC(NCC1CCN(CCO)CC1)c1ccc(OC(F)(F)F)cc1` (configuration not stated), the pIC50 is on record as 6.465 and the IC50 is 343 nM.
For `CC(NCC1CCN(CCO)CC1)c1cccc(Cl)c1` (configuration not stated) the same measures were 6.336 and 442 nM.
On the same counts, the results for `CC(NCC1CCN(CCO)CC1)c1ccc(Cl)cc1` (configuration not stated) are 6.133 and 671 nM.
`COc1ccccc1C(C)(C)NCc1ccc(C)o1` had a negative logarithm of the IC50 (pIC50) of 5.785 and an IC50 of 1220 nM.
For `COc1ccc(CN2CCNC(=O)CC2)cc1SC(F)(F)F` the same measures were 6.078 and 754 nM.
On the same counts, the results for `CCN(CC)Cc1ccccc1NC(=O)N(C)Cc1ccccc1O` are 6.076 and 765 nM.
Regarding `COCCOc1ccccc1CNCC1COC2(CCCC2)O1` (configuration not stated), the negative logarithm of the IC50 (pIC50) turned out to be 6.238 and the half-maximal inhibitory concentration (IC50) was 727 nM.
For `CCc1cc(CNCc2ccccc2N(C)C2CCN(C)CC2)on1` the same measures were 6.107 and 828 nM.
In the case of `CN1CCC(N(C)c2ccccc2CNCc2ccco2)CC1`, the pIC50 was 6.649 and the IC50 is 157 nM.
`Cc1noc(C)c1CNCc1ccccc1N(C)C1CCN(C)CC1` showed a negative logarithm of the IC50 (pIC50) of 6.243 and an IC50 of 489 nM.
Turning to `CC(=O)N(c1ccc(F)cc1)c1nc(CN2CCCC2C(C)C)cs1` (configuration not stated), the pIC50 was 6.177 and the 50% inhibitory concentration (IC50) is 479 nM.
For `CC(=O)N(c1ccc(C)cc1)c1nc(CN2CCCC(C)C2)cs1` (configuration not stated) the same measures were 5.762 and 1610 nM.
For `CCC(NCc1ccccc1Cl)c1ccccc1OCC(=O)NC` (configuration not stated), the pIC50 was 6.134 and 5.792.
On to `CCC(NCc1ccccc1C)c1ccccc1OCC(=O)NC` (configuration not stated), for which the negative-log IC50 (pIC50) is 6.158 and half-maximal inhibition (IC50) was put at 731 nM.
On the same counts, the results for `CCC(NCc1cccc(Cl)c1)c1ccccc1OCC(=O)NC` (configuration not stated) are 6.073 and 1370 nM.
As for `COc1ccc(Cn2nnnc2SCC2CCCN(C)C2)cc1` (configuration not stated), the pIC50 is on record as 5.834 and the half-inhibitory concentration (IC50) was 1090 nM.
`CC(C)Oc1ccc(C(O)CNCc2ccccc2C(F)(F)F)cc1` (configuration not stated) gave a pIC50 of 5.963 and an IC50 of 1150 nM.
Take `Cc1ccccc1CNCC(O)c1ccc(OC(C)C)cc1` (configuration not stated): the pIC50 is on record as 6.206 and the IC50 was 637 nM.
On the same counts, the results for `Cc1cc(N2CCC(NC(C)Cc3ccsc3)CC2)nc(C)n1` (configuration not stated) are 6.277 and 508 nM.
`O=C(NCC1CCN(CCc2ccccc2)C1)c1cc(Cl)c[nH]1` (configuration not stated): the negative logarithm of the IC50 (pIC50) is 5.911 and the IC50 was 1260 nM.
In turn, `COCC(O)CN(C)c1ccnc2cc(Br)ccc12` (configuration not stated) had a negative logarithm of the IC50 (pIC50) of 6.091 and a half-maximal inhibitory concentration (IC50) of 834 nM.
On the same counts, the results for `Cc1cc(NC(=O)NC2CCN(C(C)C)CC2)c2ncccc2c1` are 5.97 and 796 nM.
For `CN1CCN(c2ccccc2NC(=O)NCCc2ccccc2)CC1` the same measures were 6.032 and 998 nM.
On the same counts, the results for `CN(CCc1cccc2ccccc12)Cc1nc(N)nc(N(C)C)n1` are 5.915 and 1240 nM.
Regarding `Brc1cccc(C2(CNCc3cc[nH]c3)CCOCC2)c1`, the negative-log IC50 (pIC50) came to 6.135 and the IC50 is 829 nM.
As to `COCCC1(CNC(=O)Nc2ccnc(C)c2)CCCC1`, the pIC50 is on record as 6.054 and inhibition was half-maximal at 876 nM (IC50).
On the same counts, the results for `CN1CCN(S(=O)(=O)c2ccc(Cl)c(Cl)c2)c2cnccc21` are 6.238 and 557 nM.
Turning to `CC(C)C(CNCc1cccc2c1OCO2)N1CCOCC1` (configuration not stated), the pIC50 stood at 6.558 and the IC50 was 429 nM.
For `Cc1n[nH]cc1CNC1(c2ccc(F)cc2)CCCC1` the same measures were 6.295 and 584 nM.
For `CC(NCCN1CCC(N(C)C)CC1)c1ccc(Cl)s1` (configuration not stated) the same measures were 6.149 and 996 nM.
In turn, `NC(=O)CN1CCC(Nc2ccnc3ccc(Cl)cc23)CC1` gave a negative logarithm of the IC50 (pIC50) of 6.054 and a half-inhibitory concentration (IC50) of 761 nM.
In turn, `Cc1cccc(C2(NCCCS(C)(=O)=O)CCCC2)c1` showed a negative-log IC50 (pIC50) of 6.254 and an IC50 of 659 nM.
For `Cc1cn2c(n1)C(CNCc1ccc(C)s1)CCC2` (configuration not stated) the same measures were 6.227 and 722 nM.
For `O=C(CN1CCCC(c2ccn[nH]2)C1)Nc1nc2c(s1)CCCC2` (configuration not stated), the pIC50 came to 6.624 and inhibition was half-maximal at 248 nM (IC50).
Compound `Cc1cc(Br)cnc1NCCN1CCC(N(C)C)CC1` had a pIC50 of 6.294 and a concentration for half-maximal inhibition (IC50) of 472 nM.
On the same counts, the results for `COCCCN1CCCN(C(C)C(=O)Nc2cccc(I)c2)CC1` (configuration not stated) are 6.54 and 483 nM.
For `CC(C)CN1CCCC1c1ccc(C(=O)Nc2cccnc2)s1` (configuration not stated) the same measures were 6.101 and 537 nM.
Regarding `CSc1ccc(-c2nc(CN3CCC(CN)C3)c(C)o2)cc1` (configuration not stated), the pIC50 is 5.962 and 5.805 and 6.058; the IC50 was 1020 nM.
With `Cc1cc(F)ccc1-c1ccccc1CC1CNCCNC1=O.Cl` (configuration not stated), the negative logarithm of the IC50 (pIC50) is 6.113 and the IC50 was 1190 nM.
On the same counts, the results for `Cl.Fc1cccc(F)c1Cn1c(C2CCCNC2)cc2cccnc21` (configuration not stated) are 6.143 and 1050 nM.
For `Cl.Fc1ccccc1Cn1c(C2CCNCC2)cc2cccnc21` the same measures were 6.466 and 293 nM.
On the same counts, the results for `COc1cccc(Cn2c(C3CCNCC3)cc3cccnc32)c1.Cl` are 6.096 and 931 nM.
Compound `COc1ccccc1C1(NCc2c(C)nc3c(C)cccn23)CCCC1.Cl` showed a negative-log IC50 (pIC50) of 6.178 and a concentration for half-maximal inhibition (IC50) of 748 nM.
Regarding `COc1cccc([C@H]2CN(C(C)=O)[C@@H]3CCN(Cc4ccsc4)C[C@H]23)c1.Cl`, the pIC50 stood at 5.897 and it took 1070 nM to reach half-maximal inhibition (IC50).
On the same counts, the results for `Cc1ccc2c(c1)CN(C(=O)C1CCCCC1)C(CN(C)C)CO2.Cl` (configuration not stated) are 6.082 and 880 nM.
The compound `Cl.NCC1(c2cccc(Br)c2)CCOCC1` had a negative-log IC50 (pIC50) of 6.127 and an IC50 of 705 nM.
`CN(C)[C@@H]1CCN(S(=O)(=O)C2CC2)[C@H]1Cc1ccccc1.O=C(O)C(F)(F)F` showed a pIC50 of 5.682 and an IC50 of 2830 nM.
For `CCC(CN1CCCCC1)NC(=O)C1(c2ccc(F)cc2)CC1.O=C(O)CC(O)(CC(=O)O)C(=O)O` (configuration not stated) the same measures were 6.19 and 709 nM.
